Experimental data as given in article PMC6747724, “Dynamic Metabolic Rewiring Enables Efficient Acetyl Coenzyme A Assimilation in Paracoccus denitrificans” (mBio, 2019).

Molecular target: T1, Isocitrate lyase (Icl) (Paracoccus denitrificans, UniProt A1B1S0)
T1 construct: gene Pden_1363; Recombinant His6-tagged Icl (Pden_1363)
T1 sequence (A1B1S0 1-535): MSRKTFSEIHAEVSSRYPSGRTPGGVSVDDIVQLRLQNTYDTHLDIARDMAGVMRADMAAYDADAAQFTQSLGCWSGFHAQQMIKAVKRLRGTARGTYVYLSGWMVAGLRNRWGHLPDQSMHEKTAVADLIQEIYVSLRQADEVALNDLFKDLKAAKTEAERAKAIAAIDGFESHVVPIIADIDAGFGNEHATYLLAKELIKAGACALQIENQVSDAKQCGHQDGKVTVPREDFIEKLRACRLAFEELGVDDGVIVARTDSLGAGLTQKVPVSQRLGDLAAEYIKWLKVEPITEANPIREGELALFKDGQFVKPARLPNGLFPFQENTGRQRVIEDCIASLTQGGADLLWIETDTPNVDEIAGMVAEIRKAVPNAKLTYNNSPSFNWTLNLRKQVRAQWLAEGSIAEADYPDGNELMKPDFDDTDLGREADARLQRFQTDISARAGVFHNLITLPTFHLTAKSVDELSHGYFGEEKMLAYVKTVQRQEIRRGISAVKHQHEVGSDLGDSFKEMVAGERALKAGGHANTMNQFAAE
Experiment: spectrophotometric phenylhydrazine-glyoxylate assay with purified enzyme, […] min preincubation with 3-NPA at […]°C
Type: biochemical

## O=C(O)CC[N+](=O)[O-] [3-NPA, 3-nitropropionate]
  IC50: 34 µM
